{"source": "patent US9113629B2", "about": "“4-amino-6-(4-substituted-phenyl)-picolinates and 6-amino-2-(4-substituted-phenyl)-pyrimidine-4-carboxylates and their use as herbicides” (DOW AGROSCIENCES LLC, priority 2013, dated 2015)", "key": {"[1]": {"system": "Key Broadleaf Weed and Crop Species", "assay": "Post-emergent Test II herbicidal activity (Table 5)", "type": "in vivo", "settings": "post-emergence, 336 h, 14 days after application; for pest or weed control at 70 g/ha: application rate 70 g ai/ha; for pest or weed control at 140 g/ha: application rate 140 g ai/ha", "method_in_brief": "(§1)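 Foliar application at 187 L/ha to greenhouse-grown seedlings (first or second true leaf); subirrigation thereafter. Visual 0–100% injury at 14 d relative to untreated plants.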"}, "[2]": {"system": "Key Grass and Sedge Weeds as well as Grass Crops", "assay": "Post-emergent Test II herbicidal activity (Table 6)", "type": "in vivo", "settings": "post-emergence, 336 h; for pest or weed control at 70 g/ha: 70 g ai/ha; for pest or weed control at 140 g/ha: 140 g ai/ha", "method_in_brief": "as §1"}, "[3]": {"settings": "ABUTH: velvetleaf (Abutilon theophrasti), read-out: Visual Growth Reduction (%) 14 Days After Application, ABUTH"}, "[4]": {"settings": "AMARE: redroot pigweed (Amaranthus retroflexus), read-out: Visual Growth Reduction (%) 14 Days After Application, AMARE"}, "[5]": {"settings": "BRSNN: oilseed-rape, canola (Brassica napus), read-out: Visual Growth Reduction (%) 14 Days After Application, BRSNN"}, "[6]": {"settings": "CHEAL: lambsquarters (Chenopodium album), read-out: Visual Growth Reduction (%) 14 Days After Application, CHEAL"}, "[7]": {"settings": "EPHHL: wild poinsettia (Euphorbia heterophylla), read-out: Visual Growth Reduction (%) 14 Days After Application, EPHHL"}, "[8]": {"settings": "HELAN: sunflower (Helianthus annuus), read-out: Visual Growth Reduction (%) 14 Days After Application, HELAN"}, "[9]": {"settings": "VIOTR: wild pansy (Viola tricolor), read-out: Visual Growth Reduction (%) 14 Days After Application, VIOTR"}, "[10]": {"settings": "CYPES: yellow nutsedge (Cyperus esculentus), read-out: Visual Growth Reduction (%) 14 Days After Application, CYPES"}, "[11]": {"settings": "DIGSA: crabgrass (Digitaria sanguinalis), read-out: Visual Growth Reduction (%) 14 Days After Application, DIGSA"}, "[12]": {"settings": "ECHCG: barnyardgrass (Echinochloa crus-galli), read-out: Visual Growth Reduction (%) 14 Days After Application, ECHCG"}, "[13]": {"settings": "ORYSA: rice (Oryza sativa), crop, read-out: Visual Growth Reduction (%) 14 Days After Application, ORYSA"}, "[14]": {"settings": "SETFA: giant foxtail (Setaria faberi), read-out: Visual Growth Reduction (%) 14 Days After Application, SETFA"}, "[15]": {"settings": "SORVU: grain sorghum (Sorghum vulgare), read-out: Visual Growth Reduction (%) 14 Days After Application, SORVU"}, "[16]": {"settings": "TRZSS (wheat, Triticum aestivum), crop, read-out: Visual Growth Reduction (%) 14 Days After Application, TRZSS"}, "[17]": {"settings": "ZEAMX: maize, corn (Zea mays), crop, read-out: Visual Growth Reduction (%) 14 Days After Application, ZEAMX"}}, "note": "Read-outs that look alike come from different tables or passages of the source."}
{"smiles": "COC(=O)c1nc(-c2ccc(Br)c(F)c2F)c(F)c(N)c1Cl", "note": "[Compound 109, methyl 4-amino-6-(4-bromo-2,3-difluorophenyl)-3-chloro-5-fluoropicolinate]", "values": [{"measurement": "pest or weed control at 70 g/ha", "setting": "[1]; [3]", "value": "95 to 100", "unit": "%"}, {"measurement": "pest or weed control at 140 g/ha", "setting": "[1]; [3]", "value": "95 to 100", "unit": "%"}, {"measurement": "pest or weed control at 70 g/ha", "setting": "[1]; [4]", "value": "95 to 100", "unit": "%"}, {"measurement": "pest or weed control at 140 g/ha", "setting": "[1]; [4]", "value": "95 to 100", "unit": "%"}, {"measurement": "pest or weed control at 70 g/ha", "setting": "[1]; [5]", "value": "95 to 100", "unit": "%"}, {"measurement": "pest or weed control at 140 g/ha", "setting": "[1]; [5]", "value": "95 to 100", "unit": "%"}, {"measurement": "pest or weed control at 70 g/ha", "setting": "[1]; [6]", "value": "95 to 100", "unit": "%"}, {"measurement": "pest or weed control at 140 g/ha", "setting": "[1]; [6]", "value": "95 to 100", "unit": "%"}, {"measurement": "pest or weed control at 70 g/ha", "setting": "[1]; [7]", "value": "95 to 100", "unit": "%"}, {"measurement": "pest or weed control at 140 g/ha", "setting": "[1]; [7]", "value": "95 to 100", "unit": "%"}, {"measurement": "pest or weed control at 70 g/ha", "setting": "[1]; [8]", "value": "0 to 29", "unit": "%"}, {"measurement": "pest or weed control at 140 g/ha", "setting": "[1]; [8]", "value": "95 to 100", "unit": "%"}, {"measurement": "pest or weed control at 70 g/ha", "setting": "[1]; [9]", "value": "95 to 100", "unit": "%"}, {"measurement": "pest or weed control at 140 g/ha", "setting": "[1]; [9]", "value": "95 to 100", "unit": "%"}, {"measurement": "pest or weed control at 70 g/ha", "setting": "[2]; [10]", "value": "95 to 100", "unit": "%"}, {"measurement": "pest or weed control at 140 g/ha", "setting": "[2]; [10]", "value": "95 to 100", "unit": "%"}, {"measurement": "pest or weed control at 70 g/ha", "setting": "[2]; [11]", "value": "85 to 94", "unit": "%"}, {"measurement": "pest or weed control at 140 g/ha", "setting": "[2]; [11]", "value": "95 to 100", "unit": "%"}, {"measurement": "pest or weed control at 70 g/ha", "setting": "[2]; [12]", "value": "95 to 100", "unit": "%"}, {"measurement": "pest or weed control at 140 g/ha", "setting": "[2]; [12]", "value": "95 to 100", "unit": "%"}, {"measurement": "pest or weed control at 70 g/ha", "setting": "[2]; [13]", "value": "45 to 59", "unit": "%"}, {"measurement": "pest or weed control at 140 g/ha", "setting": "[2]; [13]", "value": "45 to 59", "unit": "%"}, {"measurement": "pest or weed control at 70 g/ha", "setting": "[2]; [14]", "value": "95 to 100", "unit": "%"}, {"measurement": "pest or weed control at 140 g/ha", "setting": "[2]; [14]", "value": "95 to 100", "unit": "%"}, {"measurement": "pest or weed control at 70 g/ha", "setting": "[2]; [15]", "value": "85 to 94", "unit": "%"}, {"measurement": "pest or weed control at 140 g/ha", "setting": "[2]; [15]", "value": "95 to 100", "unit": "%"}, {"measurement": "pest or weed control at 70 g/ha", "setting": "[2]; [16]", "value": "45 to 59", "unit": "%"}, {"measurement": "pest or weed control at 140 g/ha", "setting": "[2]; [16]", "value": "60 to 74", "unit": "%"}, {"measurement": "pest or weed control at 70 g/ha", "setting": "[2]; [17]", "value": "85 to 94", "unit": "%"}, {"measurement": "pest or weed control at 140 g/ha", "setting": "[2]; [17]", "value": "85 to 94", "unit": "%"}]}
